Entries after “also recorded” stand apart in the source; their conditions may differ.
Legend:
[1] = test system: diabetic apolipoprotein E-deficient mice; settings: cited from earlier work
hepatocyte cytoskeleton = experiment: Cytoskeleton gene panel and actin/microtubule confocal immunofluorescence; type: cell-based; settings: HepG2 and primary human hepatocytes, Mdivi-1 50 μM, 24 hours
Procedure: Filamentous actin was stained using CytoPainter Phallodin iFluor 555 Reagent (2 μl phalloidin in 2000 μl PBS with 1% BSA; Abcam), with a 60 minute incubation at room temperature. Slides were incubated with anti-alpha tubulin (1:200, Abcam, ab15246), PDI (1:100; 3501, Cell Signaling Technology), and anti-mitochondria (ab92824, Abcam) for 2 hours at room temperature or overnight at 4° C., followed by incubation with Alexa Fluor 488-labelled secondary antibody (1:200, Thermo Fisher Scientific). Nuclear staining was performed with DAPI (Thermo Fisher Scientific). Prior to visualization 200 μL PBS was added to each well. Liver tissue and cells were examined using a confocal microscope Al (Nikon Instruments Inc., Melville, N.Y.), and all images were processed with Elements 3.20 software (Nikon Instruments Inc.). Human cells and mouse liver was homogenized with TriZolTM (Life Technologies, Grand Island, N.Y.) to isolate RNA. […]

LDLR protein = experiment: Western blot, HepG2 LDLR protein; type: cell-based, human; settings: HepG2, 24 hours; Mdivi-1 50 μM, pitavastatin 1 μM, T0901317 1 μM
p62 = experiment: Western blot, HepG2 p62 and p (S349) p62; type: cell-based, human; settings: HepG2, 24 hours; Mdivi-1 50 μmol/L, MG132 0.3 μmol/L
[2] = test system: HNF1A, SREBP-2, and SREBP-1a; experiment: Real time PCR, PCSK9 regulating transcription factors; type: cell-based; settings: HepG2 and primary human hepatocytes, Mdivi-1 50 μM, 24 hours
From the text: (§1) Human cells and mouse liver was homogenized with TriZolTM (Life Technologies, Grand Island, N.Y.) to isolate RNA. QuantiTectTM Reverse Transcription Kit (Qiagen, Hilden, Germany) was used for reverse transcription on total RNA. cDNA was generated using the Quanta gScriptTM cDNA Synthesis Kit (Bioscience Inc., Gaithersburg, Md.). mRNA levels were quantified on a 7900HT real-time PCR system (Thermo Fisher Scientific) using TaqManTM real-time PCR with the following probes: Hs02758991_g1 (human GAPDH); Mm99999915_g1 (mouse Gapdh); Hs00236329 m1 (human BCL2L1); Hs00247147_m1 (human DRP1); Hs00545399_m1 (human PCSK9); Mm01263610_m1 (mouse Pcsk9); Hs00168352_m1 (human HMGCR); […]); Hs00181192_m1 (human LDLR); Mm00440169_m1 (mouse Ldlr); Hs01088691_m1 (human SREBP1); Mm00550338_m1 (mouse Srebp1); Hs00231674_m1 (human SREBP1a); custom primer (human SREBP1c); Hs01081784_m1 (human SREBP2); Mm01306292_m1 (mouse Srebp2); Hs01005622_m1 (human FASN); […]); Hs00167041_m1 (human HNF1A); Mm00493434_m1 (mouse Hnf1a); Hs00171168 (human APOE); Hs01059118_m1 (human ABCA1); Hs01103582_s1 (human JUN). Mouse SREBP-1c was analyzed by SYBERTM green PCR with the following primers: [NT] All expression levels were normalized to GAPDH using the ΔΔCT method.

HepG2 cells = experiment: HepG2 viability by Trypan Blue exclusion; type: cell-based, human; settings: HepG2, Mdivi-1, 24 hours
Procedure: HepG2 cells were obtained from ATCC (Manassas, Va.), and cultured in EMEM with L-glutamine (ATCC) medium, 1% pen/strep, with and without 10% FBS (Thermo Fisher Scientific, Waltham, Mass.) in 12-well plates (Corning, Durham, N.C.). HepG2 cells were plated at a density of 60-70% prior to treatment to avoid clumping. Freshly isolated primary human hepatocytes plated at 100% confluency on 12-well plates were obtained from Thermo Fisher Scientific. Three donors were used to obtain experimental data: person, person, and a person. Primary hepatocytes were treated immediately upon arrival and cultured in William's E medium with hepatic maintenance supplement pack (Thermo Fisher Scientific), 1% pen/strep (VWR; Radnor, Pa.), and 10% FBS (Thermo Fisher Scientific). Cell viability was assessed by Trypan Blue exclusion using live/dead cell counting on a Countess™ II LT automated cell counter (Thermo Fisher Scientific).

PCSK9 mRNA = experiment: Real time PCR, HepG2 PCSK9 mRNA; type: cell-based, human; settings: HepG2, Mdivi-1 50 μM, 24 hours
From the text: as §1

cellular PCSK9 protein = experiment: Western blot, primary human hepatocyte cellular PCSK9 protein; type: cell-based; settings: primary human hepatocytes, Mdivi-1 50 μM, 24 hours

## COc1cc(-n2c(S)nc3ccccc3c2=O)c(Cl)cc1Cl [Mdivi-1, 3-(2,4-Dichloro-5-methoxyphenyl)-2,3-dihydro-2-thioxo-4(1H)-quinazolinone]
[1]
  oxidative stress and inflammation: reduces
Hepatocyte cytoskeleton
  hepatocyte cytoskeleton: did not alter
LDLR protein
  HepG2 LDLR protein increase: 5.8 fold
p62
  p62 abundance: strongly increased
  p62 phosphorylation: increased
[2]
  Expression of HNF1A, SREBP-2, and SREBP-1a: not changed
HepG2 cells
  cell viability: without altering
PCSK9 mRNA
  Cellular PCSK9 mRNA: reduced; also recorded: strongly reduced
Cellular PCSK9 protein
  cellular PCSK9 protein: without altering

Source: patent US10960020B2, “Modulation of PCSK9 and LDLR through DRP1 inhibition” (THE BRIGHAM AND WOMEN'S HOSPITAL, INC., priority 2016, dated 2021)
